Test results taken from US10874743B2, “IRAK degraders and uses thereof” (Kymera Therapeutics, Inc., priority 2017, dated 2020).

Target: T1, IRAK4 (Homo sapiens, UniProt Q9NWZ3)
T1 sequence (Q9NWZ3 1-460): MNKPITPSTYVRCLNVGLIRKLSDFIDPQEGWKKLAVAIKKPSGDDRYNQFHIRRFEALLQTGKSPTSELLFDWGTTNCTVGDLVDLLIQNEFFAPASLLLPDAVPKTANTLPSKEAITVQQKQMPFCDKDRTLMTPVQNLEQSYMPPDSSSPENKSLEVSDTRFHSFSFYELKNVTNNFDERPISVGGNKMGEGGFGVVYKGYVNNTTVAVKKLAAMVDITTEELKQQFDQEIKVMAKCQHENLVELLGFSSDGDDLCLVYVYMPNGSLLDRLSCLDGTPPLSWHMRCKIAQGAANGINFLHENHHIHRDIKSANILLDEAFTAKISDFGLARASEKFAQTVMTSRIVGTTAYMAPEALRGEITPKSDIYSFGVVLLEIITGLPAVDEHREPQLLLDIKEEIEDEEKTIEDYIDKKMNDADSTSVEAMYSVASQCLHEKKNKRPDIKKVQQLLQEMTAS
Assay: OCI-LY-10 degradation assay (western blot, % IRAK4 degraded after 4 hours)
Format: cell-based
Parameters: endogenous in cells; host or cells: OCI-LY10
Details: OCI-LY10 cells, IRAK4 degraded after 4 hours, western blot
Experimental: Compounds were reconstituted in DMSO to make stock solutions at concentration of 60 mM. THP-1 and OCI-LY10 cells were maintained in RPMI-1640 medium containing 10% FBS, 0.5 μM 2-ME or 20% FBS, 55 μM 2-ME, and 1% L-Glutamine respectively.
Cells were seeded into 6-well plates with 5e6 cells per well. 200 μL of diluted compounds were added to cells to the final concentration of 0.003-10 μM. After 4 or 24 hour-incubation at 37° C., cells were collected into 2 mL Eppendorf tubes and centrifuged at 1,000 rpm for 5 min. The cell pellets were washed with 1×DPBS once and resuspended in 60 μL lysis buffer. The cells were lysed on ice for 10 min, then centrifuged at 14,000 rpm for 10 min at 4° C. and the supernatants were collected for western blots. For THP-1 cells, the lysis buffer contained 40 mM pH 7.4 HEPES, 140 mM NaCl, 2.5 mM EDTA, 1% NP-40, 0.1% SDS, and protease inhibitor cocktail (Roche, Cat. No. 05892791001). For OCI-LY10 cells, RIPAbuffer (Thermo Fisher, 89900) with Halt Protease and Phosphatase Inhibitor Cocktail (Thermo Fisher, 78446) was applied.
The protein concentration of cell lysates was quantified with Pierce™ BCA Protein Assay Kit (Pierce, 23227). Albumin standards at different concentrations were prepared, involving 2,000 ug/mL, 1,500 ug/mL, 1,000 ug/mL, 750 ug/mL, 500 ug/mL, 250 ug/mL, 125 ug/mL, and 25 ug/mL. BCA working reagents were prepared by mixing BCA reagent A with reagent B in 50:1 ratio. 200 μL of the BCA working reagents were added to 25 μL of BCA standard or cell lysates in microplate, and mixed thoroughly on a plate shaker for 30 seconds. After incubation at 37° C. for 30 min, the absorbance of samples at 562 nm were measured with EnVision Plate Reader.
Protein lysates were prepared in NuPAGE™ LDS sample buffer and NuPAGE™ sample reducing agent, and incubated at 95° C. for 5 min. For western blots, 20-25 μg of total proteins were resolved in 4-12% Bis-Tris gels (Introgen, WG1403A) or 10% Bis-Tris Midi gels (Invitrogen, WG1202BOX) running with 1×MOPS SDS running buffer (Invitrogen, NP0001) or 1×MES SDS running buffer (Invitrogen, NP0002). The proteins were transferred to low fluorescence PVDF membranes using the Trans-Blot Turbo Transfer System. Membranes were then blocked in Odyssey blocking buffer at RT for 1 h followed by primary incubation at 4° C. overnight. The primary antibodies were IRAK1 rabbit monoclonal antibody (CST, #4504S, 1:500), IRAK3 rabbit polyclonal antibody (CST, #4369, 1:500), IRAK4 rabbit polyclonal antibody (CST, #4363S, 1:1,000), MyD88 rabbit monoclonal antibody (Abcam, Ab133739, 1:2,000), j3-actin mouse monoclonal antibody (Sigma, A5441, 10,000), and Gapdh mouse monoclonal antibody (Millipore, MAB374, 1:5,000). Membranes were washed three times with 1×TBST, and then incubated with IR Dye 800 CW Goat anti-rabbit (Licor, #926-32211) and IR Dye 700 CW Goat anti-mouse (Licor, #926-68070) secondary antibodies in 1:10,000 dilution at RT for 1 h. The western blot images were obtained using Odyssey Imaging System.
OCI-LY-10 results at 4 hours. The letter codes indicate the percentage of IRAK4 degraded after 4 hours: A (>50% degradation), B (>20-50% degradation) and C (<20% degradation)
OCI-LY-10 results at 4 hours. The letter codes for % IRAK4 degradation indicate the percentage of IRAK4 degraded after 4 hours across three different concentrations: A (>50% degradation), B (>20-50% degradation) and C (<20% degradation).

Compound	OCI-LY10 % IRAK4 Degradation
CC(OCCOCCNc1cccc2c1C(=O)N(C1CCC(=O)NC1=O)C2=O)C(F)CNC(=O)c1cnc(Nc2ccc3cnccc3n2)cc1NC1CC1 (stereo not shown) [I-84]	C (<20% degradation)
CC(OCCOCCNc1cccc2c1C(=O)N(C1CCC(=O)NC1=O)C2=O)C(F)CNC(=O)c1cnc(-n2ncc3cc(C#N)cnc32)cc1NC1CC1 (stereo not shown) [I-85]	C (<20% degradation)
CC(C)(OCCCOCCCNc1cccc2c1C(=O)N(C1CCC(=O)NC1=O)C2=O)C(F)CNC(=O)c1cnc(-n2ncc3cc(C#N)cnc32)cc1NC1CC1 (stereo not shown) [I-86]	C (<20% degradation)
CC[C@@H]1[C@H](F)C(=O)N[C@@H]1COc1nccc2cc(C(=O)NCCOCCOCCNc3cccc4c3C(=O)N(C3CCC(=O)NC3=O)C4=O)c(OC)cc12 (stereo partly shown) [I-87]	C (<20% degradation)
N#Cc1cnc2c(cnn2-c2cc(NC3CC3)c(C(=O)NCC(F)CCOCCOCCOCCNc3cccc4c3C(=O)N(C3CCC(=O)NC3=O)C4=O)cn2)c1 (stereo not shown) [I-88]	C (<20% degradation)
CC[C@@H]1[C@H](F)C(=O)N(CCOCCOCCOCCOCCNc2cccc3c2C(=O)N(C2CCC(=O)NC2=O)C3=O)[C@@H]1COc1nccc2cc(C(N)=O)c(OC)cc12 (stereo partly drawn) [I-89, 1-[[(2S,3S,4S)-1-[2-[2-[2-[2-[2-[[2-(2,6-dioxo-3-piperidyl)-1,3-dioxo-isoindolin-4-yl]amino]ethoxy]ethoxy]ethoxy]ethoxy]ethyl]-3-ethyl-4-fluoro-5-oxo-pyrrolidin-2-yl]methoxy]-7-methoxy-isoquinoline-6-carboxamide]	C (<20% degradation)
NC(=O)[C@@H](O)C[C@H]1CCc2sc3ncnc(O[C@H]4CC[C@H](N5CCN(CCOCCOCCNc6cccc7c6C(=O)N(C6CCC(=O)NC6=O)C7=O)CC5)CC4)c3c21 (stereo partly drawn) [I-90, (2S)-3-[(8R)-1-[4-[4-[2-[2-[2-[[2-(2,6-dioxo-3-piperidyl)-1,3-dioxo-isoindolin-4-yl]amino]ethoxy]ethoxy]ethyl]piperazin-1-yl]cyclohexoxy]-7,8-dihydro-6H-cyclopenta[4,5]thieno[1,2-c]pyrimidin-8-yl]-2-hydroxy-propanamide]	B (>20-50% degradation)
NC(=O)[C@H](O)C[C@H]1CCc2sc3ncnc(O[C@H]4CC[C@H](N5CCN(CCOCCOCCNc6cccc7c6C(=O)N(C6CCC(=O)NC6=O)C7=O)CC5)CC4)c3c21 (stereo partly drawn) [I-91, (2R)-3-[(8R)-1-[4-[4-[2-[2-[2-[[2-(2,6-dioxo-3-piperidyl)-1,3-dioxo-isoindolin-4-yl]amino]ethoxy]ethoxy]ethyl]piperazin-1-yl]cyclohexoxy]-7,8-dihydro-6H-cyclopenta[4,5]thieno[1,2-c]pyrimidin-8-yl]-2-hydroxy-propanamide]	C (<20% degradation)
NC(=O)c1nn(-c2ccc(COCCOCCOCCNc3cccc4c3C(=O)N(C3CCC(=O)NC3=O)C4=O)cc2)cc1NC(=O)c1coc(-c2ccnc(NCC(F)(F)F)c2)n1 (stereo not shown) [I-92, N-[3-carbamoyl-1-[4-[2-[2-[2-[[2-(2,6-dioxo-3-piperidyl)-1,3-dioxo-isoindolin-4-yl]amino]ethoxy]ethoxy]ethoxymethyl]phenyl]pyrazol-4-yl]-2-[2-(2,2,2-trifluoroethylamino)-4-pyridyl]oxazole-4-carboxamide]	A (>50% degradation)
CC(CNc1cccc2c1C(=O)N(C1CCC(=O)NC1=O)C2=O)OCCOCCOCC(F)CNC(=O)c1cnc(Nc2ccc3cnccc3n2)cc1NC1CC1 (stereo not shown) [I-93, 4-(Cyclopropylamino)-N-[3-[2-[2-[2-[[2-(2,6-dioxo-3-piperidyl)-1,3-dioxo-isoindolin-4-yl]amino]-1-methyl-ethoxy]ethoxy]ethoxy]-2-fluoro-propyl]-6-(1,6-naphthyridin-2-ylamino)pyridine-3-carboxamide]	C (<20% degradation)
N#Cc1cnc2c(cnn2-c2cc(NC3CC3)c(C(=O)NCC(F)COCCNCCOCCNc3cccc4c3C(=O)N(C3CCC(=O)NC3=O)C4=O)cn2)c1 (stereo not shown) [I-94, 6-(5-Cyano-1H-pyrazolo[3,4-b]pyridin-1-yl)-4-(cyclopropylamino)-N-(3-(2-((2-(2-((2-(2,6-dioxopiperidin-3-yl)-1,3-dioxoisoindolin-4-yl)amino)ethoxy)ethyl)amino)ethoxy)-2-fluoropropyl)nicotinamide]	B (>20-50% degradation)
N#Cc1cnc2c(cnn2-c2cc(NC3CC3)c(C(=O)NCC(F)COCCOCCNC(=O)COc3cccc4c3C(=O)N(C3CCC(=O)NC3=O)C4=O)cn2)c1 (stereo not shown) [I-95, 6-(5-Cyanopyrazolo[3,4-b]pyridin-1-yl)-4-(cyclopropylamino)-N-[3-[2-[2-[[2-[2-(2,6-dioxo-3-piperidyl)-1,3-dioxo-isoindolin-4-yl]oxyacetyl]amino]ethoxy]ethoxy]-2-fluoro-propyl]pyridine-3-carboxamide]	C (<20% degradation)
CC(C)(OCCOCCNC(=O)COc1cccc2c1C(=O)N(C1CCC(=O)NC1=O)C2=O)C(F)CNC(=O)c1cnc(-n2ncc3cc(C#N)cnc32)cc1NC1CC1 (stereo not shown) [I-101]	C (<20% degradation)
N#Cc1cnc2c(cnn2-c2cc(NC3CC3)c(C(=O)NCC(F)COCCCCCNC(=O)COc3cccc4c3C(=O)N(C3CCC(=O)NC3=O)C4=O)cn2)c1 (stereo not shown) [I-102]	C (<20% degradation)
CC[C@@H]1[C@H](F)C(=O)N[C@@H]1COc1nccc2cc(C(=O)NCCOCCOCCOCCOCCNC(=O)COc3cccc4c3C(=O)N(C3CCC(=O)NC3=O)C4=O)c(OC)cc12 (stereo partly shown) [I-103]	C (<20% degradation)
NC(=O)c1nn(-c2ccc(COCCOCCOCCOCCNC(=O)COc3cccc4c3C(=O)N(C3CCC(=O)NC3=O)C4=O)cc2)cc1NC(=O)c1coc(-c2ccnc(NCC(F)(F)F)c2)n1 (stereo not shown) [I-105, N-[3-carbamoyl-1-[4-[2-[2-[2-[2-[[2-[2-(2,6-dioxo-3-piperidyl)-1,3-dioxo-isoindolin-4-yl]oxyacetyl]amino]ethoxy]ethoxy]ethoxy]ethoxymethyl]phenyl]pyrazol-4-yl]-2-[2-(2,2,2-trifluoroethylamino)-4-pyridyl]oxazole-4-carboxamide]	A (>50% degradation)
Cc1ccc(NS(=O)(=O)c2ccc(CNC(=O)COCCOCCOCCOCCNC(=O)c3ccc(-n4cc(NC(=O)c5coc(-c6ccnc(NCC(F)(F)F)c6)n5)c(C(N)=O)n4)cc3)cc2)c2[nH]cc(C#N)c12 [I-113]	C (<20% degradation)
Cc1ccc(NS(=O)(=O)c2ccc(CNC(=O)COCCOCCOCCOCCOCCNC(=O)c3ccc(-n4cc(NC(=O)c5coc(-c6ccnc(NCC(F)(F)F)c6)n5)c(C(N)=O)n4)cc3)cc2)c2[nH]cc(C#N)c12 [I-114]	C (<20% degradation)
Cc1ncsc1-c1ccc(CNC(=O)[C@@H]2C[C@@H](O)CN2C(=O)[C@@H](NC(=O)COCCOCCOCCNC(=O)c2ccc(-n3cc(NC(=O)c4coc(-c5ccnc(NCC(F)(F)F)c5)n4)c(C(N)=O)n3)cc2)C(C)(C)C)cc1 [I-115]	B (>20-50% degradation)
